Data taken from patent publication US20150246025A1, “2-PHENYL-5-HETEROCYCLYL-TETRAHYDRO-2H-PYRAN-3-AMINE COMPOUNDS FOR USE IN THE TREATMENT OF DIABETES AND ITS ASSOCIATED DISORDERS” (CADILA HEALTHCARE LIMITED, priority 2012, published 2015).

Columns and labels:
DPP-IV enzyme = target: T1, DPP-IV enzyme (Homo sapiens, UniProt P27487); assay: In vitro DPP-IV inhibitory activity using enzymatic (fluorescence-based) assay; type: biochemical; settings: soluble human DPP-IV, H-Gly-Pro-AMC 200 μM, pH 7.8, 25° C., 30 min; read-out: % In-vitro DPPIV Inhibition IC50
T1 construct: soluble human proteins (DPP-IV enzyme) produced in a baculovirus expression system; made in house; host or cells: baculovirus expression system (Life Technologies)
T1 sequence (P27487 39-766 limits assumed): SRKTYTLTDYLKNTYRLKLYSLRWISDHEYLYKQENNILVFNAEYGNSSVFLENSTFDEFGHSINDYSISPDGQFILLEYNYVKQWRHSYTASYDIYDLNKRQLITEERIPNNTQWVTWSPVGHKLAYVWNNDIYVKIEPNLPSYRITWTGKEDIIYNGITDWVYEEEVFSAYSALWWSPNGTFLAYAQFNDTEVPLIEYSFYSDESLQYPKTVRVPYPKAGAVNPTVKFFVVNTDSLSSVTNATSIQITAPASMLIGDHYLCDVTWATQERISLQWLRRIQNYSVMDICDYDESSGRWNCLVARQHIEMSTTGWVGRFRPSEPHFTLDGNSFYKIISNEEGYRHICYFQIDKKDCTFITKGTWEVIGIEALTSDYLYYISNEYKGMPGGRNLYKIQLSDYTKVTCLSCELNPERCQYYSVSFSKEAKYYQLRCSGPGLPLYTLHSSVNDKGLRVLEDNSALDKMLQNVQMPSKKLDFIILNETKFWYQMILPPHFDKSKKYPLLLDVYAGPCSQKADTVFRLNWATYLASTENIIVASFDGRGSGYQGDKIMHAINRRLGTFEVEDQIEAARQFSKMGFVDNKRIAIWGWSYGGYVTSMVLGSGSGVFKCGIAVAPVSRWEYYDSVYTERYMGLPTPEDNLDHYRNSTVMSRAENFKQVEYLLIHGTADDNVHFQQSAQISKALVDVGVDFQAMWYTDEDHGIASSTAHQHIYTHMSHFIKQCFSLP
Description: In Vitro DPP-IV Inhibitory Activity Using Enzymatic Assay:
In vitro enzyme (DPP-IV) inhibitory activity was determined using fluorescence-based assay (Anal. Biochem., 200, 352, 1992). The Gly-Pro-AMC was used as a substrate (which is cleaved by the enzymes to release the fluorescent AMC) and soluble human proteins (DPP-IV enzyme) produced in a baculovirus expression system (Life Technologies) was used as the enzyme source. The H-Gly-Pro-AMC (200 μM) was incubated with DPP-IV enzyme in the presence of various concentrations (30 & 100 nM) of test compounds. Reaction was carried out at pH 7.8 (HEPES buffer 25 mM containing 1.0% BSA, 140 mM NaCl, 16 mM MgCl2, 2.8% DMSO) in a total volume of 100 μl at 25° C. for 30 min., in the dark. Reaction was terminated with acetic acid (25 μl of 25% solution). Activity (fluorescence) was measured using Spectra Max fluorometer (Molecular Devices, Sunnyvale Calif.) by exciting at 380 nm and emission at 460 nm.

C57BL/6J mice = assay: In vivo antihyperglycaemic/antidiabetic activity (OGTT), acute single dose 120-min time-course; settings: Mus musculus, 2 h; male C57BL/6J mice, acute single dose 0,3 mg/kg po, 120-min time-course, n = 6, Mean ± SEM; read-out: In vivo OGTT C57; % Glucose change
Description: Acute single dose 120-min time-course experiments were carried out in male C57BL/6J mice, age 8-12 weeks, bred in-house. Animals were housed in groups of 6 animals per cage, for a week, in order to habituate them to vivarium conditions (25±4° C., 60-65% relative humidity, 12: 12 h light: dark cycle, with lights on at 7.30 am). All the animal experiments were carried out according to the internationally valid guidelines following approval by the ‘Zydus Research Center animal ethical committee’.
The in-vivo glucose lowering properties of the test compounds were evaluated in C57BL/6J (mild hyperglycemic) animal models as described below. Two days prior to the study, the animals were randomized and divided into groups (n=6), based upon their fed glucose levels. On the day of experiment, food was withdrawn from all the cages, water was given ad-libitum and were kept for overnight fasting. Vehicle (normal saline)/test compounds were administered orally, on a body weight basis. Soon after the 0 min. blood collection from each animal, the subsequent blood collections were done at 30, 60 and 120 or upto 240 min., via retro-orbital route, under light ether anesthesia (Diabetes Obesity Metabolism, 7, 307, 2005; Diabetes, 52, 751, 2003).
Blood samples were centrifuged and the separated serum was immediately subjected for the glucose estimation. Serum for insulin estimation was stored at −70° C. until used for the insulin estimation. The glucose estimation was carried out with DPEC-GOD/POD method (Ranbaxy Fine Chemicals Limited, Diagnostic division, India), using Spectramax-190, in 96-microwell plate reader (Molecular devices Corporation, Sunnyvale, Calif.). […] The AUC and BCAUC obtained from graphs were analyzed for one way ANOVA, followed by Dunnett's post test, using Graph Pad prism software.

Row | Structure (SMILES) | IC50 (DPP-IV enzyme) | change in vivo at 0.3 mg/kg (C57BL/6J mice)
1 | CS(=O)(=O)N1CCC2CN([C@H]3CO[C@H](c4cc(F)ccc4F)[C@@H](N)C3)CC21 (stereo partly drawn) [Compound 15, (2R,3S,5R)-2-(2,5-difluorophenyl)-5-(1-(methylsulfonyl)hexahydropyrrolo[3,4-b]pyrrol-5(1H)-yl)tetrahydro-2H-pyran-3-amine] | < 100 nM | -42 ± 1.8%
2 | CS(=O)(=O)N1C[C@H]2CN([C@H]3CO[C@H](c4cc(F)ccc4F)[C@@H](N)C3)C[C@H]21 [Compound 19, (2R,3S,5R)-2-(2,5-difluorophenyl)-5-((1R,5S)-6-(methylsulfonyl)-3,6-diazabicyclo[3.2.0]heptan-3-yl)tetrahydro-2H-pyran-3-amine] | < 100 nM | -20.6 ± 3%
3 | CS(=O)(=O)N1C[C@H]2CN([C@H]3CO[C@H](c4cc(F)ccc4F)[C@@H](N)C3)[C@H]2C1 [Compound 20, (2R,3S,5R)-2-(2,5-difluorophenyl)-5-((1R,5R)-3-(methylsulfonyl)-3,6-diazabicyclo[3.2.0]heptan-6-yl)tetrahydro-2H-pyran-3-amine] | < 100 nM | -8.4 ± 1.7%
4 | N[C@H]1C[C@@H](N2CC3=C(CN(C(=O)c4ccccc4)C3)C2)CO[C@@H]1c1cc(F)ccc1F [Compound 23, (5-((3R,5S,6R)-5-amino-6-(2,5-difluorophenyl)tetrahydro-2H-pyran-3-yl)-5,6-dihydropyrrolo[3,4-c]pyrrol-2(1H,3H,4H)-yl)(phenyl)methanone] | < 30 nM | -22 ± 1.2%
5 | CC(C)C(=O)N1CC2=C(C1)CN([C@H]1CO[C@H](c3cc(F)ccc3F)[C@@H](N)C1)C2 [Compound 24, 1-(5-((3R,5S,6R)-5-amino-6-(2,5-difluorophenyl)tetrahydro-2H-pyran-3-yl)-5,6-dihydropyrrolo[3,4-c]pyrrol-2(1H,3H,4H)-yl)-2-methylpropan-1-one] | < 30 nM | -18.9 ± 5.7%

Now from value to compound, other results behind:

Row | IC50 (DPP-IV enzyme) | Structure (SMILES) | change in vivo at 0.3 mg/kg (C57BL/6J mice)
6 | < 100 nM | CS(=O)(=O)N1CCC2(CCN([C@H]3CO[C@H](c4cc(F)ccc4F)[C@@H](N)C3)C2)CC1 [Compound 14, (2R,3S,5R)-2-(2,5-difluorophenyl)-5-(8-(methylsulfonyl)-2,8-diazaspiro[4.5]decan-2-yl)tetrahydro-2H-pyran-3-amine] | -14.2 ± 3.4%
7 | < 100 nM | CS(=O)(=O)N1CC2CCN([C@H]3CO[C@H](c4cc(F)ccc4F)[C@@H](N)C3)C2C1 (stereo partly drawn) [Compound 16, (2R,3S,5R)-2-(2,5-difluorophenyl)-5-(5-(methylsulfonyl)hexahydropyrrolo[3,4-b]pyrrol-1(2H)-yl)tetrahydro-2H-pyran-3-amine] | -29.4 ± 6.8%
8 | < 100 nM | N[C@H]1C[C@@H](N2CC3CN(Cc4ccccc4)CC3C2)CO[C@@H]1c1cc(F)ccc1F (stereo partly drawn) [Compound 18, (2R,3S,5R)-5-(5-benzylhexahydropyrrolo[3,4-c]pyrrol-2(1H)-yl)-2-(2,5-difluorophenyl)tetrahydro-2H-pyran-3-amine] | -12.6 ± 4%
9 | < 100 nM | CS(=O)(=O)NC1CC2CN([C@H]3CO[C@H](c4cc(F)ccc4F)[C@@H](N)C3)CC2C1 (stereo partly drawn) [Compound 21, N-(2-((3R,5S,6R)-5-amino-6-(2,5-difluorophenyl)tetrahydro-2H-pyran-3-yl)octahydrocyclopenta[c]pyrrol-5-yl)methanesulfonamide] | -15 ± 4%
10 | < 30 nM | N[C@H]1C[C@@H](N2CC3=C(CN(C(=O)C4CC4)C3)C2)CO[C@@H]1c1cc(F)ccc1F [Compound 22, (2R,3S,5R)-5-(5-(cyclopropanecarbonyl)-5,6-dihydropyrrolo[3,4-c]pyrrol-2(1H,3H,4H)-yl)-2-(2,5-difluorophenyl)tetrahydro-2H-pyran-3-amine] | -25.1 ± 2%
11 | < 30 nM | N[C@H]1C[C@@H](N2CC3=C(CN(C(=O)C4CCCC4)C3)C2)CO[C@@H]1c1cc(F)ccc1F [Compound 25, (5-((3R,5S,6R)-5-amino-6-(2,5-difluorophenyl)tetrahydro-2H-pyran-3-yl)-5,6-dihydropyrrolo[3,4-c]pyrrol-2(1H,3H,4H)-yl)(cyclopentyl)methanone] | -12.2 ± 2.5%
